# Data published in ChEMBL document CHEMBL1201862, “PubChem BioAssay data set” (2004).
# Active and inactive are the calls of the source.
# Legend:
# [1] = target: T1, COUP transcription factor 2 (Homo sapiens, UniProt P24468); assay: Luminescence-based cell-based high throughput dose response assay to identify inhibitors of COUP-TFII (NR2F2).; type: functional;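 note: HEK293 cells transiently cotransfected with COUP-TFII expression vector and reporter; luciferase reporter luminescence driven by COUP-TFII from the pX2-168 reporter plasmid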
# T1 sequence (P24468 whole entry): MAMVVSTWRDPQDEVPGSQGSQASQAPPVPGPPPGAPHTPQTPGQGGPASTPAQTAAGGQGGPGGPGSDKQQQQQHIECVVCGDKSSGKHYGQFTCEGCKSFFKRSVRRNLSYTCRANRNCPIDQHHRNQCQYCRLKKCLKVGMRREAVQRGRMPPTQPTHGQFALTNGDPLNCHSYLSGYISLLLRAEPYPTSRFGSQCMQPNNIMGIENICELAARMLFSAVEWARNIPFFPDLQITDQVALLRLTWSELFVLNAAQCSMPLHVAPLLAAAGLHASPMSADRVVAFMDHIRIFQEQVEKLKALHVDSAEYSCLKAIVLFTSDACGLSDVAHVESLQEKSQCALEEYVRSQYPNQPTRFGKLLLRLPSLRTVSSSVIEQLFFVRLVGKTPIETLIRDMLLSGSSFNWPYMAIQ
# [2] = target: T2, Protein RecA (Mycobacterium tuberculosis, UniProt P9WHJ3); assay: Fluorescence Cell-Free Homogeneous Dose Retest to Identify Inhibitors of RecA-Intein Splicing Activity. [Related pubchem assays (depositor defined):AID2097, AID2223, AID489010, AID492950]; type: functional
# T2 sequence (P9WHJ3 whole entry): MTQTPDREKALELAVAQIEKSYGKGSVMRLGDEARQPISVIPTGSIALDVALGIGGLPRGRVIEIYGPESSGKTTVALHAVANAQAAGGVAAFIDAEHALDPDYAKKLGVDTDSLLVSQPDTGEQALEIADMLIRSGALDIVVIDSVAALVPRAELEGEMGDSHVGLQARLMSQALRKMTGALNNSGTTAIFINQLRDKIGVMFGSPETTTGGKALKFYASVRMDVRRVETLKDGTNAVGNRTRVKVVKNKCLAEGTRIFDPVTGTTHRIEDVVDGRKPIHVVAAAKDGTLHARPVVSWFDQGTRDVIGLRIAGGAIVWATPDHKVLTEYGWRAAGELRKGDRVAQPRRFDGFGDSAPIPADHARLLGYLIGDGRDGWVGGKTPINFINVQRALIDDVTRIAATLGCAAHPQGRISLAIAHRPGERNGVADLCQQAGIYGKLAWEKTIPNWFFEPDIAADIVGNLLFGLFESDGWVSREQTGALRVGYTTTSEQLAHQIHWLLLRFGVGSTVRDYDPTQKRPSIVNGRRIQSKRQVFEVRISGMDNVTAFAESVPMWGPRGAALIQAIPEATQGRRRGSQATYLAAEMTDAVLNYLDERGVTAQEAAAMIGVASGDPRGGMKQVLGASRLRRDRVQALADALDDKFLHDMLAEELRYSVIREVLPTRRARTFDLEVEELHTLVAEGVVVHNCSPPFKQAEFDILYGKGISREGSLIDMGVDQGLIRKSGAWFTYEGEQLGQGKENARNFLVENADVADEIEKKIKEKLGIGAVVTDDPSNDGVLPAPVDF
# [3] = target: T3, Tyrosyl-DNA phosphodiesterase 2 (Homo sapiens, UniProt O95551); assay: human TDP2 enzyme inhibitors, dose response, biochemical, epi absorbance, IC50 (AID 743297)
# T3 sequence (O95551 whole entry): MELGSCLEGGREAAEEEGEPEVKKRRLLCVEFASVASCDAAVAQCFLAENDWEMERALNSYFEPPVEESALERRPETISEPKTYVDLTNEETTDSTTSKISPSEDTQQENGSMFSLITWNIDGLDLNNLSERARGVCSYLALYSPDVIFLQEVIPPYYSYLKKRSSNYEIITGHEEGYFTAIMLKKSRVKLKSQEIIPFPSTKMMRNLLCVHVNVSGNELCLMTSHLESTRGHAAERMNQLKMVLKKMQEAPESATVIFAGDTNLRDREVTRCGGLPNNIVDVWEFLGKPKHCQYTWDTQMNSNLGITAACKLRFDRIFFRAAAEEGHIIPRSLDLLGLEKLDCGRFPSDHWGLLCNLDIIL
# [4] = NIH-3T3 fibroblast cytotoxicity, dose response, cytotoxicity control, cell-based, fluorescence, Alamar Blue, secondary assay (AID 2327); type: functional;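 note: NIH-3T3 mouse fibroblasts cultured with fluconazole at 8 µg/mL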
# [5] = inhibitors of firefly luciferase expression or activity, dose response, H4 neuroglioma cells, luminescence (AID 1990); type: functional, cell-based
# [6] = Luminescence Cell-Based Dose Response HTS to Identify Inhibitors of 5'UTR Stem-Loop Driven Prion Protein mRNA Translation in H4 Neuroglioblastoma Cells. [Related pubchem assays: 1827 (Project Summary), 1813 (Primary HTS)]; type: functional
# [7] = inhibitors of SNCA 5'UTR-driven reporter translation, confirmation, H4 neuroglioma cells, luminescence (AID 1988); type: functional, cell-based
# [8] = C. albicans growth with fluconazole, confirmation, fluorescence, retest (AID 2467); type: functional, cell-based
# [9] = target: Nonstructural protein 1 (Influenza A virus, UniProt Q194T2); type: functional, Influenza A virus (A/California/07/2009(H1N1))
# Nonstructural protein 1, sequence (Q194T2 whole entry): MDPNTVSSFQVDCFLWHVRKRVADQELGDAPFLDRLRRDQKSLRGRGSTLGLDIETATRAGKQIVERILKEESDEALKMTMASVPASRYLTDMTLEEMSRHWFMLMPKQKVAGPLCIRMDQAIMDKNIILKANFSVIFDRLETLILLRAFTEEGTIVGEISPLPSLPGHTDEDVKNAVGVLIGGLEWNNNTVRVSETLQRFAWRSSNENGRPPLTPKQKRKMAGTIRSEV
# [10] = target: T4, Galanin receptor type 3 (Homo sapiens, UniProt O60755); assay: Fluorescence-based cell-based primary high throughput dose response assay to identify antagonists of the Galanin Receptor 3 (GalR3).; type: functional
# T4 sequence (O60755 whole entry): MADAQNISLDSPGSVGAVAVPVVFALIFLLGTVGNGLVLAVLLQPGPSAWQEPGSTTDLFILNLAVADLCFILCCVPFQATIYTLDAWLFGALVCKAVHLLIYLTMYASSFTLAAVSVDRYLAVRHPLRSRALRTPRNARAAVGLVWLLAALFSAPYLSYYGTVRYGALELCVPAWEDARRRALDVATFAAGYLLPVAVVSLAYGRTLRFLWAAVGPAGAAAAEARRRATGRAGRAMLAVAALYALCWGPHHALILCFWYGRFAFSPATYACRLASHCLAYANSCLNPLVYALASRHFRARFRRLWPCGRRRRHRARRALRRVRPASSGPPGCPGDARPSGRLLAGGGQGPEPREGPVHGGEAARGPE
# [11] = cells; type: functional, cell-based; conditions: HEK-CNG
# [12] = target: T5, Histone-lysine N-methyltransferase NSD2 (Homo sapiens, UniProt O96028); type: biochemical
# T5 sequence (O96028 whole entry): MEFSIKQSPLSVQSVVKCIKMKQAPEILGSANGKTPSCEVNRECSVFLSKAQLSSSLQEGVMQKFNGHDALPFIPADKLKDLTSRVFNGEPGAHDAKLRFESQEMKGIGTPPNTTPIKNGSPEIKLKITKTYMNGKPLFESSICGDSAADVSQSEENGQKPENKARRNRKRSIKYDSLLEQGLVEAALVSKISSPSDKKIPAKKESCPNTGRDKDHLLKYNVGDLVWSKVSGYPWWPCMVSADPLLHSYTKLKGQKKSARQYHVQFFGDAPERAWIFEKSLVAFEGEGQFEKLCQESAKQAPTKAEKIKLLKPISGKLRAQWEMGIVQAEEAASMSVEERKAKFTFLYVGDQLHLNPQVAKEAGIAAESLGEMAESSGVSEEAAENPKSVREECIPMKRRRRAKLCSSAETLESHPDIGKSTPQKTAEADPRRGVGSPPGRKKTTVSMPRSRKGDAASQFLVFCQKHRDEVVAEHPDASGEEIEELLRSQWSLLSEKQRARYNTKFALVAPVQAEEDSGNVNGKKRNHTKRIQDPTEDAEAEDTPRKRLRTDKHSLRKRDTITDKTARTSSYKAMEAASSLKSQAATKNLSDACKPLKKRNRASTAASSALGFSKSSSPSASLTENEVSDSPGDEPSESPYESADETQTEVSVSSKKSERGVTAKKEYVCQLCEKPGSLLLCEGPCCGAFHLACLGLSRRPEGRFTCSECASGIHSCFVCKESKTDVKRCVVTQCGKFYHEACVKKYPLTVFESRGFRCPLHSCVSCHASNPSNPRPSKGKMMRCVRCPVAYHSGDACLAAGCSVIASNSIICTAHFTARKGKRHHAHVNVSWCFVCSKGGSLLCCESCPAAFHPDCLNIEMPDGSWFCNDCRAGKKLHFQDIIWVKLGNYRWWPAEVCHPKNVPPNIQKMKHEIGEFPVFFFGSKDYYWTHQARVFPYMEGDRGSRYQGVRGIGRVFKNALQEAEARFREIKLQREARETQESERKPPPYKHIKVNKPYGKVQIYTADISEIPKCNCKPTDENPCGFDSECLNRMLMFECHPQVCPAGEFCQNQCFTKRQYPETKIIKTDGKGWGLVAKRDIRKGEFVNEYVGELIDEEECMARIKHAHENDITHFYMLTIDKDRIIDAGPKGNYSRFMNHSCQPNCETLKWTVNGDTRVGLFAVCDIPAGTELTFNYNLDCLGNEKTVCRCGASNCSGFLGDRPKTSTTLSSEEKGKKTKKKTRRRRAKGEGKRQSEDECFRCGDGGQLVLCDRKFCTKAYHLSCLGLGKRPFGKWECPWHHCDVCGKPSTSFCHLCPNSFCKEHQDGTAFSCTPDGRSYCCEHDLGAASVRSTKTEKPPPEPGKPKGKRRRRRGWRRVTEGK
# [13] = Shn3 3'UTR reporter inhibitors, dose response, cell-based, Clone20 osteoblasts, firefly luciferase, cherry-picked (AID 624132); type: functional;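 note: firefly luciferase luminescence from reporter carrying the Shn3 3'UTR in osteoblasts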
# [14] = HepG2 cell cytotoxicity, dose response, cytotoxicity control for Shn3 inhibitor project, CellTiter-Glo, cherry-picked (AID 624134); type: functional, cell-based
# [15] = control 3'UTR Renilla luciferase suppression, dose response, counter-screen for Shn3 inhibitor project, cell-based, Clone20-Shn3RL, cherry-picked (AID 624133); type: functional
# [16] = target: T6, Caspase-6 (Homo sapiens, UniProt P55212); assay: human caspase-6 inhibitors, dose response, biochemical, VEID-R110 fluorescence, cherry-pick (AID 720632)
# T6 sequence (P55212 whole entry): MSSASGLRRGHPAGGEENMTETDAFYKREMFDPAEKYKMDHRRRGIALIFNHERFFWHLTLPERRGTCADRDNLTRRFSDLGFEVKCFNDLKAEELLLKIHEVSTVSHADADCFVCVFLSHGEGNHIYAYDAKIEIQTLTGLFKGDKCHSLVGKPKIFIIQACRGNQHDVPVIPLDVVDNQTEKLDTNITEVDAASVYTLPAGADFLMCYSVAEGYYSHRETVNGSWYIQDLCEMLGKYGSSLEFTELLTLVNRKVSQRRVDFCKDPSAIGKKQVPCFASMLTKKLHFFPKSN
# [17] = target: Potassium channel subfamily K member 9 (Homo sapiens, UniProt Q9NPC2); assay: TASK3 (KCNK9) channel inhibitors, thallium flux, SAR follow-up, selectivity assay for TASK1 inhibitor project, cell-based, FluxOR thallium flux, concentration-response (AID 652211); type: functional;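 note: potency is for inhibitors of the channel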
# Potassium channel subfamily K member 9, sequence (Q9NPC2 whole entry): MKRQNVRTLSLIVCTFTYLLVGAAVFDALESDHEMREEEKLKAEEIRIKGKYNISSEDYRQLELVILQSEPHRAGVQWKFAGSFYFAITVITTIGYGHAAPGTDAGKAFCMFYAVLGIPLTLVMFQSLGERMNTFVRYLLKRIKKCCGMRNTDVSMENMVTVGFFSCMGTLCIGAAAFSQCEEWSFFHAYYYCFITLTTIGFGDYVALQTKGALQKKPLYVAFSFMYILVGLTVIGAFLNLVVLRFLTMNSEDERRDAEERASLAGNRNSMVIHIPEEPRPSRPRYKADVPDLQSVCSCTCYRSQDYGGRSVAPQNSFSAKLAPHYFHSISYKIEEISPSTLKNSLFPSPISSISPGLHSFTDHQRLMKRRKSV
# [18] = inhibitors of PGC1a acetylation in cells, dose response, cell-based, cherry-picked samples (AID 720514); type: functional;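 note: potency may reflect raised or lowered acetylation signal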
# [19] = A549 cell cytotoxicity, dose response, cytotoxicity control, plate reader, cherry-pick, antagonist series (AID 743412); type: functional, cell-based
# [20] = HepG2 cell cytotoxicity, dose response, cytotoxicity control, plate reader, cherry-pick, antagonist series (AID 743416); type: functional, cell-based
# [21] = MC4R antagonists, dose response, counter-screen for LGR2 antagonist project, cell-based, plate reader, cherry pick (AID 743444); type: functional;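 note: transfected HEK 293 cells stimulated with alpha-MSH peptide; potency of inhibitors of the alpha-MSH evoked signal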
# [22] = HEK293 cell cytotoxicity, dose response, cytotoxicity control, plate reader, cherry-picked samples (AID 743446); type: functional, cell-based
# [23] = LGR2 antagonists, dose response, cell-based, HEK293, CRE-luciferase reporter, cherry pick, set 2 (AID 743343); type: functional;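 note: transfected cells were stimulated with diluted bursicon conditioned medium after compound addition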
smiles,measurement,setting,value
Cc1c(C)n(Cc2ccccc2)c2ncnc(Cl)c12,IC50,[1],10.7 µM (inactive)
S=C(Nc1ccc2nsnc2c1)N1CCCCCC1,EC50,[2],46.7 µM (active)
same,IC50,[3],> 128 µM (inactive)
CC[n+]1c(/C=C/C=C/c2ccc(N(C)C)cc2)sc2ccccc21.[O-][Cl+3]([O-])([O-])[O-],EC50,[4],82.9 µM (active)
same,EC50,[5],43.6 µM (active)
same,EC50,[6],11.2 µM (active)
same,EC50,[7],0.666 µM (active)
same,EC50,[8],< 0.03 µM (active)
same,IC50,[9],5.05 µM (active)
same,IC50,[10],> 29.9 µM (inactive)
same,EC50,[11],> 29.9 µM (inactive)
same,AC50,[12],7.84 µM (active)
CC(=O)c1c(C)[nH]c(C(=O)COc2cc(C)ccc2C(C)C)c1C,AC50,[13],1.25 µM (active)
same,AC50,[14],3.12 µM (active)
same,AC50,[15],8.41 µM (active)
same,IC50,[10],1.24 µM (active)
same,EC50,[11],> 29.9 µM (inactive)
same,IC50,[1],5.74 µM (active)
O=C1NC(Cc2ccc(O)cc2)c2nc3ccc(Br)cc3c(=O)n2-c2ncccc21 (stereo unspecified),AC50,[16],35.4 µM (active)
Cc1cccc(C(=O)Nc2cccc(NC(=O)c3ccccc3C)c2)c1,IC50,[17],0.94 µM (active)
O=C(Nc1cccc(NC(=O)c2ccccc2Cl)c1)c1ccccc1,IC50,[17],33.4 µM (active)
C[C@H]1CN([C@@H](C)CO)S(=O)(=O)c2ccc(C#CC3CCCCC3)cc2O[C@@H]1CN(C)Cc1cccnc1,AC50,[18],10.4 µM (active)
C[C@@H]1CN([C@H](C)CO)C(=O)Cc2cc(NC(=O)Nc3ccc(F)cc3)ccc2O[C@@H]1CN(C)CC1CCCCC1,AC50,[19],15 µM (active)
same,AC50,[20],14.6 µM (active)
same,AC50,[21],56.6 µM (active)
same,AC50,[22],16.2 µM (active)
N#C[C@H]1[C@H](c2ccc(C#Cc3ccccc3F)cc2)[C@H](CO)N1C(=O)C1CCCC1,AC50,[19],23.6 µM (active)
same,AC50,[20],34.5 µM (active)
same,AC50,[23],5.64 µM (active)
same,AC50,[21],4.57 µM (active)
same,AC50,[22],8.77 µM (active)
